US9504747B2, “Lipids and lipid compositions for the delivery of active agents” (Novartis AG, priority 2013, dated 2016)
“And” between values parts separate entries of the source, which are not always exact repeats. Equal entries are not always repeated.

Legend:
[1] = Polydispersity index (PDI) of the lipid nanoparticle (dynamic light scattering); type: physicochemical
Text: The lipid nanoparticles (LNPs) were formed by mixing equal volumes of lipids dissolved in alcohol with siRNA dissolved in a citrate buffer by an impinging jet process. […] The siRNA to total lipid ratio is approximately 0.05 (wt/wt). Where a LNP formulation contains four lipid components, the molar ratios correspond to the type of lipid as it appears in the first four columns of the table, in the order that they appear. The ratio of the lipids ranges from 20 to 70 mole percent for the cationic lipid with a target of 40-60, the mole percent of helper lipid ranges from 20 to 70 with a target of 30 to 50, the mole percent of neutral lipid ranges from 0-30, the mole percent of PEG lipid has a range from 1 to 6 with a target of 2 to 5. The concentration of siRNA solution ranges from 0.7 to 1.0 mg/mL with a target of 0.8 to 0.9 mg/mL in a sodium citrate: sodium chloride buffer pH 4-6, with a target of 4.5-5.5. The LNPs are formed by mixing equal volumes of lipid solution in ethanol with siRNA dissolved in a citrate buffer by an impinging jet process through a mixing device with ID ranging from 0.25 to 2.0 mm at a flow rate from 10 to 640 mL/min. The mixed LNP solution is held at room temperature for 0-24 hrs prior to a dilution step. […] The final product is sterile filtered and stored at 4° C. Unless indicated otherwise, all PDIs referred to herein are the PDI of the fully formed nanoparticle, as measured by dynamic light scattering on a Malvern Zetasizer. The nanoparticle sample was diluted in phosphate buffered saline (PBS) so that the count rate was approximately 200-400 kcts. The data is presented in Tables 4 and 5 as a weighted average of the intensity measure.

[2] = pKa measurement of the cationic lipid (TNS fluorescence vs pH); type: physicochemical; settings: probe TNS (fluorescent probe), pKa of the cationic lipid of formula (I)
Experimental: Unless indicated otherwise, all pKa's referred to herein were measured at standard temperature and pressure. Also, unless otherwise indicated, all references to pKa are references to pKa measured using the following technique. 2 mM solution of lipid in ethanol was prepared by weighing the lipid and then dissolving it in ethanol. 0.3 mM solution of fluorescent probe TNS in ethanol:methanol 9:1 was prepared by first making 3 mM solution of TNS in methanol and then diluting to 0.3 mM with ethanol. An aqueous buffer containing 200 mM sodium phosphate dibasic and 100 mM citric acid was prepared. […] Using the Hamilton Microlab Star high throughput liquid handler and Hamilton run control software Software, 7.5 uL of probe/lipid mix were added to 242.5 uL of buffer in a 1 mL 96 well plate (model NUNC 260252, […] Nunc International). This was done with all twelve buffers. After mixing in 1 mL 96 well plate, 100 uL of each probe/lipid/buffer mixture was transferred to a 250 uL black with clear bottom 96 well plate (model COSTAR 3904, Corning). The fluorescence measurements are carried out on the SpectraMax M5 spectrophotometer using software SoftMax pro 5.2 and following parameters: After the measurement, the background fluorescence value of an empty well on the 96 well plate was subtracted from each probe/lipid/buffer mixture. The fluorescence intensity values were then normalized to the value at lowest pH. The normalized fluorescence intensity vs. pH chart was then plotted in the Microsoft Excel software. The twelve points were connected with a smooth line. The point on the line at which the normalized fluorescence intensity was equal to 0.5 was found. […] The pKa determined using this method is precise to about 0.1 pKa units.

[3] = Particle size of the lipid nanoparticle (dynamic light scattering, Malvern Zetasizer); type: physicochemical; settings: Table 4, FVII siRNA LNP, Z-average
Text: The lipid nanoparticles have a size of about 1 to about 2,500 nm, about 1 to about 1,500 nm, about 1 to about 1,000 nm, in a sub-embodiment about 50 to about 600 nm, in a sub-embodiment about 50 to about 400 nm, in a sub-embodiment about 50 to about 250 nm, and in a sub-embodiment about 50 to about 150 nm. Unless indicated otherwise, all sizes referred to herein are the average sizes (diameters) of the fully formed nanoparticle, as measured by dynamic light scattering on a Malvern Zetasizer. The nanoparticle sample is diluted in phosphate buffered saline (PBS) so that the count rate is approximately 200-400 kcts. The data is presented as a weighted average of the intensity measure. The lipid nanoparticles (LNPs) were formed by mixing equal volumes of lipids dissolved in alcohol with siRNA dissolved in a citrate buffer by an impinging jet process. […] The siRNA to total lipid ratio is approximately 0.05 (wt/wt). Where a LNP formulation contains four lipid components, the molar ratios correspond to the type of lipid as it appears in the first four columns of the table, in the order that they appear. The ratio of the lipids ranges from 20 to 70 mole percent for the cationic lipid with a target of 40-60, the mole percent of helper lipid ranges from 20 to 70 with a target of 30 to 50, the mole percent of neutral lipid ranges from 0-30, the mole percent of PEG lipid has a range from 1 to 6 with a target of 2 to 5. The concentration of siRNA solution ranges from 0.7 to 1.0 mg/mL with a target of 0.8 to 0.9 mg/mL in a sodium citrate: sodium chloride buffer pH 4-6, with a target of 4.5-5.5. The LNPs are formed by mixing equal volumes of lipid solution in ethanol with siRNA dissolved in a citrate buffer by an impinging jet process through a mixing device with ID ranging from 0.25 to 2.0 mm at a flow rate from 10 to 640 mL/min. The mixed LNP solution is held at room temperature for 0-24 hrs prior to a dilution step. […] The final product is sterile filtered and stored at 4° C. Unless indicated otherwise, all particle size measurements referred to in Tables 4 and 5 are the Z-average particle size of the fully formed nanoparticle, as measured by dynamic light scattering on a Malvern Zetasizer. The nanoparticle sample was diluted in phosphate buffered saline (PBS) so that the count rate is approximately 200-400 kcts.

[4] = test system: respiratory syncytial virus F protein; test: Immunization studies: anti-RSV-F titers after liposome-delivered vA317 self-replicating RNA; type: in vivo; settings: BALB/c mice, Course A = days 0 & 21, liposomes with 0.1 μg vA317 replicon (naked control 1 μg)
Experimental: BALB/c were immunized with liposomes comprising DSPC, cholesterol, and various lipids of the invention (or, for comparison, the cationic lipid 1,2-dilinoleyloxy-N,N-dimethyl-3-aminopropane or ‘DLinDMA’). The liposomes encapsulated 0.1 μg of “vA317” self-replicating RNA replicon which encodes respiratory syncytial virus F protein (see WO2012/031043). […] Doses were given either on days 0 & 21 or days 0 & 42. Immune responses were assessed 2 weeks after each dose (2wp1, 2wp2), and in some cases also at 4 weeks after the second dose (4wp2). Four series of experiments were performed, each with its own naked control.

[5] = Table 4, FVII siRNA LNP, Chol/DSPC/stealth lipid S010, 45/44/9/2
[6] = Chol/DSPC/stealth lipid S010, molar ratio 45/44/9/2
[7] = Table 4, FVII siRNA LNP, Chol/DSPC/stealth lipid PEG-DMG, 45/44/9/2
[8] = Chol/DSPC/stealth lipid PEG-DMG, molar ratio 45/44/9/2

| SMILES | PDI [1, 5] | pKa ([2]; Table 4) | Size (nm) [3, 6] [nm] | other results |
| --- | --- | --- | --- | --- |
| CCCCCCCC(=O)OCC(CCCCOc1cc(CN(C)C)cc(OCCCCC(COC(=O)CCCCCCC)COC(=O)CCCCCCC)c1)COC(=O)CCCCCCC [Example 110] | 0.071 | 5.66 | 183.3 | – |
| CCCCC/C=C\C/C=C\CCCCCCCCOc1cc(CN(C)C)cc(OCCCCCCCC/C=C\C/C=C\CCCCC)c1 [Example 2] | 0.067 | 5.57 | – | PDI [1, 7]: 0.04; PDI ([1]; Table 5, PLK1-424 siRNA LNP, stealth lipid S011, 45/44/9/2): 0.1; pKa ([2]; Table 5): 5.57; anti-RSV-F titer 2wp1 pool 1 ([4]; 2 weeks after first dose): 217; anti-RSV-F titer 2wp1 pool 2 ([4]; 2 weeks after first dose): 259; anti-RSV-F titer 2wp2 pool 1 ([4]; 2 weeks after second dose): 12785; anti-RSV-F titer 2wp2 pool 2 ([4]; 2 weeks after second dose): 8232 |
| CCCCCC(=O)OCCCCCCCCOc1cc(CN(C)C)cc(OCCCCCCCCOC(=O)CCCCC)c1 [Example 41] | 0.119 | 5.83 | 170.7 | – |
| CCCCCCCC(=O)OCC(COC(=O)CCCCCCC)COc1cc(CN(C)C)cc(OCC(COC(=O)CCCCCCC)COC(=O)CCCCCCC)c1 [Example 111] | 0.048 | 6.27 | 161.9 | – |
| CCCCCCCCCCCCCC(=O)OCCCCOc1cc(CN(C)C)cc(OCCCCOC(=O)CCCCCCCCCCCCC)c1 [Example 61] | 0.076 | 5.82 | 81.79 | – |
| CCCCC/C=C\C/C=C\CCCCCCCC(=O)OCCOc1cc(CN(C)C)cc(OCCOC(=O)CCCCCCC/C=C\C/C=C\CCCCC)c1 [Example 40] | 0.062 | 6.17 | 94.28 | PDI [1, 7]: 0.02; Size (nm) [3, 8]: 110.9 nm |
| CCCCCCCCCOC(=O)OCCCCCC(=O)OCc1cc(COC(=O)CCCCCOC(=O)OCCCCCCCCC)cc(CN(C)C)c1 [Example 106] | 0.083 | 6.04 | 149.3 | – |
| CCCCC/C=C\CC=CCCCCCCCC(=O)OCCCCOc1cc(CN(C)C)cc(OCCCCOC(=O)CCCCCCCC=CC/C=C\CCCCC)c1C [Example 51] | 0.052 | – | 103.2 | – |
| CCCCCCCC(=O)OC[C@@H](CCOc1cc(CN(C)C)cc(OCC[C@H](COC(=O)CCCCCCC)OC(=O)CCCCCCC)c1)OC(=O)CCCCCCC [Example 94] | 0.073 | 6.16 | 116.4 | – |
| CCCCCCCC/C=C\CCCCCCCC(=O)OCCCCOc1cc(CN(C)C)cc(OCCCCOC(=O)CCCCCCC/C=C\CCCCCCCC)c1 [Example 60] | 0.098 | 6.21 | 95.55 | – |
| CCCCCCCC(=O)OCCCCCCCC(=O)OCc1cc(COC(=O)CCCCCCCOC(=O)CCCCCCC)cc(CN(C)C)c1 [Example 87] | 0.089 | 6.07 | 159.2 | – |
| CCCCC/C=C\C/C=C\CCCCCCCC(=O)OCCCCOc1cc(CN(CC)CC)cc(OCCCCOC(=O)CCCCCCC/C=C\C/C=C\CCCCC)c1C [Example 55] | 0.043 | 6.37 | 106.9 | PDI [1, 7]: 0.10; Size (nm) [3, 8]: 101.9 nm |
| CCCCC/C=C\C/C=C\CCCCCCCC(=O)OCCCCOc1cc(CN2CC(O)C2)cc(OCCCCOC(=O)CCCCCCC/C=C\C/C=C\CCCCC)c1 [Example 49] | 0.046 | 5.99 | 111.1 | – |
| CCCCCCCCCC(=O)OCCCC(=O)OCCCOc1cc(CN(C)C)cc(OCCCOC(=O)CCCOC(=O)CCCCCCCCC)c1 [Example 96] | 0.14 | 5.71 | 197.3 | – |
| CCCCCC(=O)OCCCCCCCCCCOc1cc(CN(C)C)cc(OCCCCCCCCCCOC(=O)CCCCC)c1 [Example 44] | 0.077 | 5.66 | 172.9 | – |
| CCCCCCCCCCCC(=O)OCCCCCCCCOc1cc(CN(C)C)cc(OCCCCCCCCOC(=O)CCCCCCCCCCC)c1 [Example 53] | 0.079 | 6.03 | 113.3 | PDI [1, 7]: 0.1; Size (nm) [3, 8]: 129.1 nm |
| CCCCCCCC(=O)OC[C@@H](CCOc1cc(CN(C)C)cc(OCC[C@@H](COC(=O)CCCCCCC)OC(=O)CCCCCCC)c1)OC(=O)CCCCCCC [Example 92] | 0.065 | 5.92 | 117.3 | – |
| CCCCCCCC(=O)OCCCCCCCCCC(=O)OCc1cc(COC(=O)CCCCCCCCCOC(=O)CCCCCCC)cc(CN(C)C)c1 [Example 86] | 0.058 | 5.84 | 120.3 | PDI [1, 7]: 0.05; Size (nm) [3, 8]: 128.7 nm |
| CCCCC/C=C\C/C=C\CCCCCCCCOc1cc(COC(=O)CCN(C)C)cc(OCCCCCCCC/C=C\C/C=C\CCCCC)c1 [Example 14] | 0.059 | 6.11 | – | anti-RSV-F titer 4wp2 pool 1 ([4]; 4 weeks after second dose): 13687 and 21375; anti-RSV-F titer 4wp2 pool 2 ([4]; 4 weeks after second dose): 18851 and 21347 |
| CCCCCCCCOC(=O)CCCCCCCC(=O)OCCCOc1cc(CN(C)C)cc(OCCCOC(=O)CCCCCCCC(=O)OCCCCCCCC)c1 [Example 98] | 0.096 | 5.94 | – | – |
| CCCCC/C=C\C/C=C\CCCCCCCCOc1cc(COC(=O)CCN(C)C)cc(OCCCCCCCC/C=C\C/C=C\CCCCC)n1 [Example 31] | 0.049 | 6.01 | – | – |
